Data on two compounds can be found in publication PMC4239038, “The Potent Cdc7-Dbf4 (DDK) Kinase Inhibitor XL413 Has Limited Activity in Many Cancer Cell Lines and Discovery of Potential New DDK Inhibitor Scaffolds” (PLoS ONE, 2014).

Experiment [1] has as its system DDK. Particulars: read-out: DDK IC50 (in vitro), cited from earlier work.
Experiment [2] has as its system Colo-205 cells. Further details: method as in PMID 22560567. Particulars: Colo-205 ref 49; read-out: Cellular Proliferation IC50; cited from earlier work.
In experiment [3] the target is T1, purified DDK (Homo sapiens, UniProt O00311).
T1 construct: His6-Smt3 (SUMO) (N, cleaved yes); made in house; host or cells: E. coli BL21-RIPL (pKT37, pETDuet-1 vector)
Kind of experiment: In vitro (γ)-32P ATP DDK kinase assay (DDK auto-phosphorylation). The class given is biochemical. The note with it: increasing inhibitor concentrations.

In experiment [4] the test system is HCT116 (p53+/+) cells. Kind of experiment: Cell viability, CellTiter-Glo. The class given is cell-based. The note with it: for IC50: Homo sapiens, HCT-116, HCT116 (p53+/+), 72 hrs post drug addition.
The test system of experiment [5] is Mcm2 Serine 53 phosphorylation in HCC1954 cells. Kind of experiment: Immunoblot of DDK-dependent Mcm2 phosphorylation. The class given is cell-based. The protocol: Whole cell extracts were prepared by re-suspending the pellets in RIPA buffer (150 mM NaCl, 1% NP-40, 0.5% sodium deoxycholate, 0.1% SDS, 50 mM Tris HCl, pH 8) containing protease inhibitors (100 µM PMSF, 1 mM Benzamide, 2.5 µg/ml Pepstatin A, 10 µg/ml Leupeptin, and 10 µg/ml Aprotinin) and phosphatase inhibitors (1 mM each NaF, Na3VO4 and Na4P2O7). Protein concentration was measured using the BCA protein assay kit (Pierce) according to manufacturer's protocol. Equal amounts of protein were subjected to SDS-PAGE and transferred to a nitrocellulose membrane (Millipore). Transfer efficiency and equal loading was confirmed by Ponceau S staining. Following primary and secondary antibody treatments, proteins were visualized using SuperSignal West Pico solutions (Thermo Scientific). Anti-Mcm2 and anti-S53-phospho-Mcm2 antibodies were purchased from Bethyl Laboratories; anti-β-actin was from Sigma; anti-mouse and anti-rabbit HRP antibodies were from GE Healthcare; and anti-Cdc7 and anti-Dbf4 antibodies were described previously.
Effective cellular uptake of the DDK inhibitor should compromise DDK activity in vivo. Among the many targets of DDK are components of the replicative Mcm2–7 helicase. Serine 53 of Mcm2 subunit is a well-characterized target site for DDK mediated phosphorylation. We quantitated levels of phosphorylation on this site as a measure of DDK activity in vivo. […] Cells were then harvested at 0, 24, 48, and 72 hours post drug addition to measure viable cells and Mcm2 phosphorylation by immunoblotting.

The subject of experiment [6] is HCC1954 cells. The experiment can be described thus: Caspase 3/7 activity (apoptosis). The note with it: HCC1954, 24 hours. The class given is cell-based. The method, then: Caspase 3/7 activity and viable cell number were then measured using the Caspase-Glo 3/7 assay (Promega) and CellTiter-Glo assay (Promega), respectively.
Experiment [7] concerns HCC1954 cells. The experiment can be described thus: Cell viability, CellTiter-Glo. The class given is cell-based. The note with it: Homo sapiens.
Experiment [8] deals with Eight tumor cell lines. The experiment can be described thus: Cell viability at 5 µM inhibitor, cell line panel. Particulars: 72 hrs, relative to vehicle controls. The class given is cell-based.
Experiment [9] deals with panel of 100 kinases. Details: method as in PMID 22560567. The note with it: panel of 100 kinases ref 49; cited from earlier work.
In experiment [10] the test system is Colo-205 cells. The experiment can be described thus: Cell viability, CellTiter-Glo. The note with it: Homo sapiens. The class given is cell-based.
The test system of experiment [11] is Colo-205 cells. The note with it: Colo-205, 24 hours.
Experiment [12] concerns HCT116 (p53-/-) cells. Kind of experiment: Cell viability, CellTiter-Glo. The class given is cell-based. Particulars: Homo sapiens, HCT-116, 72 hrs post drug addition.
The subject of experiment [13] is Mcm2 phosphorylation in Colo-205 cells. Kind of experiment: Immunoblot of DDK-dependent Mcm2 phosphorylation. The class given is cell-based. The note with it: Colo-205, 5 µM, 24 hours.
The subject of experiment [14] is purified Cdk9. Further details: method as in PMID 18469809. The note with it: purified Cdk9 ref 43; cited from earlier work.
For experiment [15], the system named is MDA-MB-453. Kind of experiment: Cell viability at 5 µM inhibitor. Particulars: MDA-MB-453, 5 µM, 72 hrs, relative to vehicle.
Experiment [16] concerns MCF-7. Kind of experiment: Cell viability at 5 µM inhibitor. Particulars: MCF-7, 5 µM, 72 hrs, relative to vehicle.
Experiment [17] has as its system human cell lines. The note with it: average from 61 human cell lines ref 42,43; read-out: Cellular Proliferation IC50; cited from earlier work.

Where two headings read alike, the source gives them in different places.

T1 sequence (O00311 whole entry): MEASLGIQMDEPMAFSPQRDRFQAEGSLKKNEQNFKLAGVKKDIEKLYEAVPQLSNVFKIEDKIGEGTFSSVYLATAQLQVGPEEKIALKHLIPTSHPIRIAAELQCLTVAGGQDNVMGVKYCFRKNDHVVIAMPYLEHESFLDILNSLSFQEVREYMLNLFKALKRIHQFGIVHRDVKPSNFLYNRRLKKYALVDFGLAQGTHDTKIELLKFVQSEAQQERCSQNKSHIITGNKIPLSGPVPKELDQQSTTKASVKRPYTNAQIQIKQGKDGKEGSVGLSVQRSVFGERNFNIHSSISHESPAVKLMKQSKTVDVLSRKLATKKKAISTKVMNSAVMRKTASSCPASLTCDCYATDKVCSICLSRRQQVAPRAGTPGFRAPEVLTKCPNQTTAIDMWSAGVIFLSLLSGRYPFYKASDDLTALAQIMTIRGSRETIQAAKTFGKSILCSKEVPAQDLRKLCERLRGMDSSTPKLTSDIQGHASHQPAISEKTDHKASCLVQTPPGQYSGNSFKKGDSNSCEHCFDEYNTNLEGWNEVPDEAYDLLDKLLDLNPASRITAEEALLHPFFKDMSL
T1 sequence (Q9UBU7 341-674 partner limits assumed): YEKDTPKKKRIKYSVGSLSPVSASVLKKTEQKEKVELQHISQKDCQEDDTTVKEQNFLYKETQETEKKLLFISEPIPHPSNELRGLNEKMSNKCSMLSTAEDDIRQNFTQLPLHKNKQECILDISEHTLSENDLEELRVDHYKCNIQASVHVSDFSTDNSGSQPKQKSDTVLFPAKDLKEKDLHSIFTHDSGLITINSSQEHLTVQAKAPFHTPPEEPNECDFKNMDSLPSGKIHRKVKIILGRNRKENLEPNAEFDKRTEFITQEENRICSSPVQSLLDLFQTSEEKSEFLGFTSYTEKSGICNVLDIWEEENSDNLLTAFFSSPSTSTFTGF

Take `O=c1[nH]c([C@@H]2CCCN2)nc2c1oc1ccc(Cl)cc12` [XL413, (S)-8-chloro-2-(pyrrolidin-2-yl)benzofuro[3,2-d]pyrimidin-4(3H)-one]: the IC50 in experiment [1] (purified DDK ref 49) was 3.4 nM; in [2], 2690 nM; in experiment [3] it was 22.7 nM; in experiment [4] it was 28700 nM; in experiment [7] (HCC1954, 72 h, HCC1954, 72 hrs post drug addition), 22900 nM; in experiment [7] (HCC1954, 72 h, XL413 from commercial supplier MedKoo) it was 22400 nM. Further, the IC50 in [10] (COLO 205, 72 h, Colo-205, 72 hrs post drug addition) worked out at 1100 nM; in [10] (COLO 205, 72 h, Colo-205, 72 hrs, XL413 from commercial supplier MedKoo), 600 nM; in experiment [12], 36600 nM. In addition, the “IC50 higher than PHA-767491” value in [4] (two additional colorectal tumor cell lines (HCT116 p53+/+ and p53-/-)) is recorded as 40- to 60 fold. The Mcm2 phosphorylation result in [5] (HCC1954, 5 µM, 24 hrs) is listed as “did not inhibit Mcm2 phosphorylation”; in experiment [5] (HCC1954, 5 µM, 72 hours) it was “only a modest decrease in Mcm2 phosphorylation”; in experiment [13], “completely abolished Mcm2 phosphorylation”. Further, the “Apoptosis induction (Caspase 3/7 activity)” value in experiment [6] and in [11] was “induced apoptosis only in the Colo-205 cells” throughout. In addition, the Anti-proliferative activity result in experiment [8] is on record as “anti-proliferative only in the Colo-205 cells”. For the same compound, the “Selectivity for DDK” value in experiment [9] is “highly selective for DDK”.

Consider `O=C1NCCc2[nH]c(-c3ccncc3)cc21` [PHA-767491, 2-pyridin-4-yl-1,5,6,7-tetrahydro-pyrrolo[3,2-c]pyridin-4-one], for which the IC50 in experiment [1] (purified kinase ref 42,43) is 10 nM; in [4] it was 450 nM; in experiment [7] (HCC1954, 72 hrs post drug addition), 640 nM; in [14], 34 nM; in experiment [10] (Colo-205, 72 hrs post drug addition) it was 1300 nM; in [12], 1000 nM. In addition, the IC50 in experiment [17] was 3170 nM. In addition, the Mcm2 phosphorylation result in experiment [5] (HCC1954, 1 µM, 24 to 72 hours) was “very little residual Mcm2 phosphorylation”; in experiment [5] (HCC1954, 2 µM, by 24 hours), “completely abolished Mcm2 phosphorylation”; in experiment [13] it was “completely abolished Mcm2 phosphorylation”. Further, the “Apoptosis induction (Caspase 3/7 activity)” value in experiment [6] and in experiment [11] was “induced apoptosis” each time. Besides, in experiment [8], the Anti-proliferative activity result is reported as “significantly inhibited proliferation in all cell lines tested”. Besides, the values for the Inhibition of proliferation in experiment [15] and in experiment [16] were 2.5 fold and 2 fold, respectively.
